According to patent US20160176867A1, “MODIFIED BET-PROTEIN-INHIBITING DIHYDROQUINOXALINONES AND DIHYDROPYRIDOPYRAZINONES” (BAYER PHARMA AKTIENGESELLSCHAFT, priority 2013, published 2016):
pIC50: −log10 of the molar value.

Key:
[1] = biological target: T1, BRD4 bromo domain 2 [BRD4(2)] (Homo sapiens, UniProt O60885); test: BRD4/acetylated peptide H4 binding assay (TR-FRET), BRD4 bromo domain 2; conditions: inhibition of BRD4(2)/Ac-H4 peptide interaction
T1 construct: N-terminally His6-tagged BRD4(2) (amino acids 357-445); made in house; host or cells: E. coli
How it was run: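 IC50 comes from a 4-parameter fit over 0.1 nM–20 μM in duplicate, normalised to DMSO and no-protein controls. TR-FRET (Eu-streptavidin/anti-His-XL665) tracks His-tagged BRD4(2) 357-445 at 100 nM binding Ac-H4 peptide in HEPES pH 7.5 buffer. Incubation was 1 h at 22 °C, then at 4 °C ≥3 h up to overnight.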

[2] = system: CHL-1 cells; test: Cell proliferation assay (alamarBlue), CHL-1; type: cell-based; conditions: Homo sapiens; CHL-1 (melanoma, BRAF wild-type), 96 hours
Experimental: In accordance with the invention, the ability of the substances to inhibit cell proliferation was determined. Cell viability was determined by means of the alamarBlue® reagent (Invitrogen) in a Victor X3 Multilabel Reader (Perkin Elmer). The excitation wavelength was 530 nm and the emission wavelength […].
The CHL-1 cells (ATCC, CRL-9446) were sown at a concentration of 1000 cells/well in 100 μl of growth medium (DMEM with glutamine, 10% FCS) on 96-well microtitre plates.
After overnight incubation at 37° C., the fluorescence values were determined (CI values). Then the plates were treated with various substance dilutions (1E-5 M, 3E-6 M, 1E-6 M, 3E-7 M, 1E-7 M, 3E-8 M, 1E-8 M) and incubated at 37° C. over 96 hours (MOLM-13, B16F10, CHL-1 cells) or 120 hours (MOLP-8 cells). Subsequently, the fluorescence values were determined (CO values). For the data analysis, the CI values were subtracted from the CO values and the results were compared between cells which had been treated with various dilutions of the substance or only with buffer solution. The IC50 values (substance concentration needed for 50% inhibition of cell proliferation) were calculated therefrom.

| Compound | pIC50 [1] | pIC50 [2] |
| --- | --- | --- |
| COCCN1c2nc(Nc3cccc(S(=O)(=O)N4CCOCC4)c3)ccc2N(C)C(=O)[C@H]1C (stereo in doubt) [Example 111, (3R)-4-(2-methoxyethyl)-1,3-dimethyl-6-{[3-(morpholin-4-ylsulphonyl)phenyl]amino}-3,4-dihydropyrido[2,3-b]pyrazin-2(1H)-one] | 6.94 | 7.07 |
| C[C@@H]1C(=O)N(C)c2ccc(Nc3cccc(S(=O)(=O)NC4CCN(C)CC4)c3)nc2N1C1CCNCC1 [Example 124, 3-{[(3R)-1,3-dimethyl-2-oxo-4-(piperidin-4-yl)-1,2,3,4-tetrahydropyrido[2,3-b]pyrazin-6-yl]amino}-N-(1-methylpiperidin-4-yl)benzenesulphonamide] | 7.34 | < 4.70 |
| C[C@@H]1C(=O)N(C)c2ccc(Nc3cccc(C(=O)N[C@H]4CC[C@H](N5CCN(CC6CC6)CC5)CC4)c3)nc2N1c1ccc(F)cc1 [Example 93] | 5.61 | 6.27 |
